Test results from US20070049518A1, “Novel method of treatment of inflammatory skin conditions” (priority 2005, published 2007).
pIC50: −log10 of the molar value.

What was measured:
S. aureus 8325-4 = experiment: S. aureus growth by turbidometry in micro-titre plates; assay type: cell-based, Staphylococcus aureus; conditions: for inhibition at 100 µM: Staphylococcus aureus, 83254, growth inhibition, overnight, absorbance 620 nm, read-out: Inhibition at 0.1 mM
Description: Tryptic soy broth (0.18 ml) containing S. aureus 8325-4 (approximately 10^5 cells) was mixed with 20 μl 20% (v/v) DMSO vehicle±compound in the wells of a flat-bottomed clear polystyrene 96-well micro-titre plate. The plate was incubated overnight at 37° C./220 rpm and the absorbance measured at 620 nm the following day.

human MMP-2 = target: T1, human MMP-2 (Homo sapiens, UniProt P08253); experiment: MMP enzyme inhibition assay, MMP-2; assay type: biochemical; conditions: pH 7.5, 37° C., 1 hour
T1 construct: purchased Calbiochem
T1 sequence (P08253 110-660): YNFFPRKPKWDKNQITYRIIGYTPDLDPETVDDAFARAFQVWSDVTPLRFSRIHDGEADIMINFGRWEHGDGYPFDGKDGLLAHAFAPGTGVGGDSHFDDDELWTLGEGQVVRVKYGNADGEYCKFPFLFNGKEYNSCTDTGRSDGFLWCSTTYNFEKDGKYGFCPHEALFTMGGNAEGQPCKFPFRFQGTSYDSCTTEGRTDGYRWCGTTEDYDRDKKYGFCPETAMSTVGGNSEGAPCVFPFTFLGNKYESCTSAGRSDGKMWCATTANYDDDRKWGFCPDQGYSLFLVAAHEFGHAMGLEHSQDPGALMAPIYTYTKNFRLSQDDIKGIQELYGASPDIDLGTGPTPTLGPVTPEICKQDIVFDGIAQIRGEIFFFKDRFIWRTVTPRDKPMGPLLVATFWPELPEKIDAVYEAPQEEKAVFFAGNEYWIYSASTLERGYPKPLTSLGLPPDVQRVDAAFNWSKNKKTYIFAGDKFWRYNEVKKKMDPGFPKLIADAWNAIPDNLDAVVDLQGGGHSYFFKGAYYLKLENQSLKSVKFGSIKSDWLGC

staphopain B = target: T2, staphopain B (Staphylococcus aureus, UniProt P0C1S6); experiment: Selectivity profile, staphopain B; assay type: biochemical; conditions: read-out: inhibition at 0.1 mM, Staphopain B
T2 construct: purchased BioCentrum Ltd
T2 sequence (P0C1S6 220-393): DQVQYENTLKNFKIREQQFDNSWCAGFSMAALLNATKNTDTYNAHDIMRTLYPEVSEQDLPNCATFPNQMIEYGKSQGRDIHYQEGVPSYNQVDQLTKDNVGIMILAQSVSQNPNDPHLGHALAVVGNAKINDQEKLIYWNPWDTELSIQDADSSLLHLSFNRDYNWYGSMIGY
Description: (§1) Inhibitory activity was tested in reaction mixtures (0.1 ml) containing 2% (v/v) DMSO vehicle±compound plus additions as follows. V8 protease: 90 mM MOPS (sodium) buffer pH 7.0, […] calcium chloride, 0.045% Brij 35, 10 μM Mca-Leu-Glu-Val-Asp-Gly-Trp-Lys(Dnp)-amide (Bachem) and V8 (BioCentrum Ltd; 30 ng). Staphopain A and B: 90 mM MOPS (sodium) buffer pH 7.0, 1.8 mM cysteine-HCl (pH-adjusted with NaOH), 0.045% Brij 35, 0.1 mM Z-Phe-Arg-AMC hydrochloride (Bachem) and staphopain A or B (BioCentrum Ltd; 30 ng). Human kallikrein 5: 0.1M sodium phosphate buffer pH 8.0, 0.045% Brij 35, 0.1 mM Boc-Val-Pro-Arg-AMC (Sigma) and recombinant human kallikrein 5 (R&D Systems Inc; 6 ng). Human kallikrein 7: 72 mM Tris-HCl pH 8.0, 0.033% Brij 35, 1.2 mM S-2586 (Chromogenix Instrumentation Laboratory SpA) and recombinant human kallikrein 7 (R&D Systems Inc; 0.6 μg) that had been thermolysin-activated according to the manufacturer's instructions. Human angiotensin-converting enzyme (ACE): 45 mM MES (sodium) buffer pH 6.5, 0.045% Brij 35, 10 μM Mca-[…]Dnp)-OH(R&D Systems Inc) and recombinant human ACE (R&D Systems Inc; 1.3 ng). Human cathepsin D: 0.1M sodium acetate buffer pH 3.5, 0.2M sodium chloride, 0.045% Brij 35, 10 μM Mca-Pro-Leu-Gly-Leu-Dap(Dnp)-Ala-Arg-amide (Bachem) and recombinant human cathepsin D (R&D Systems Inc; 8 ng) activated according to the manufacturer's instructions. […]

[1] = test system: Aureolysin in S. aureus 8325-4 culture supernatant; experiment: Aureolysin activity in supernatant of S. aureus grown with compound; assay type: cell-based, Staphylococcus aureus
Description: Duplicate samples of brain heart infusion medium (5 ml; Becton Dickinson and Co.) containing 10% skimmed milk and 2% (v/v) DMSO vehicle±Compound 12 were inoculated with S. aureus 8325-4 (approximately 10^7 cells in tryptic soy broth) and incubated for 16 h at 37° C./220 rpm. Cultures were centrifuged to remove bacteria and the culture supernatants stored at −70° C. pending analysis of protease activity.
Enzyme activities were measured in mixtures containing 90 mM MOPS (sodium) buffer pH 7.0 (0.1 ml), 0.045% Brij 35, 2% (v/v) DMSO vehicle±Compound 12 and culture supernatant (4 μl). The concentration of compound used was the same as that which had been used to culture the assayed sample. Further additions to the reaction mixtures were as follows. Aureolysin assay: 4.5 mM calcium chloride, 9 μM E-64 (to inhibit cysteine protease activity) and 10 μM Mca-Pro-Leu-Gly-Leu-Dap(Dnp)-Ala-Arg-amide (Bachem); V8 protease assay: 10 μM Mca-Leu-Glu-Val-Asp-Gly-Trp-Lys(Dnp)-amide (Bachem); cysteine protease assay: 1.8 mM cysteine-HCl (pH-adjusted with NaOH), 9 mM EDTA and 0.1 mM Z-Phe-Arg-AMC hydrochloride (Bachem). The rate of product formation at 37° C. was monitored over 6 h taking readings at 15 min intervals using a POLARstar OPTIMA plate reader (BMG LABTECH Ltd) with 320 nm excitation/405 nm emission for aureolysin and V8 assays and 390 nm excitation/460 nm emission for the cysteine protease assay. Enzyme activities were determined from the linear rate of fluorescence increase and converted to percent inhibition by reference to vehicle control samples.

Solubility in water = assay type: physicochemical; conditions: particularly when the solid is in amorphous form
[2] = target: T3, recombinant human cathepsin D (Homo sapiens, UniProt P07339); experiment: Selectivity profile, cathepsin D; assay type: biochemical; conditions: read-out: inhibition at 0.1 mM, Cathepsin D
T3 construct: recombinant human cathepsin D (R&D Systems Inc); purchased R&D Systems Inc
T3 sequence (P07339 65-412): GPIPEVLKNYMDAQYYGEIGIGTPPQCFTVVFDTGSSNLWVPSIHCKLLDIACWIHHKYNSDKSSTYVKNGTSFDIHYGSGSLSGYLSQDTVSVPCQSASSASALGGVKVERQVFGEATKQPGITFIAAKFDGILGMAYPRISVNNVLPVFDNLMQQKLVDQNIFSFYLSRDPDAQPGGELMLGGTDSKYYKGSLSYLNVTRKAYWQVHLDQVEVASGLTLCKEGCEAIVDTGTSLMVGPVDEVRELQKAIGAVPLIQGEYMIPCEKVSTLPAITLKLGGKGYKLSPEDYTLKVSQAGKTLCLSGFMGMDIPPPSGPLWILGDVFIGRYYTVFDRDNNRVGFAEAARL
Description: as §1

recombinant human ACE = target: T4, recombinant human ACE (Homo sapiens, UniProt P12821); experiment: Selectivity profile, ACE; assay type: biochemical; conditions: read-out: inhibition at 0.1 mM, ACE
T4 construct: purchased R&D Systems Inc
T4 sequence (P12821 30-1306): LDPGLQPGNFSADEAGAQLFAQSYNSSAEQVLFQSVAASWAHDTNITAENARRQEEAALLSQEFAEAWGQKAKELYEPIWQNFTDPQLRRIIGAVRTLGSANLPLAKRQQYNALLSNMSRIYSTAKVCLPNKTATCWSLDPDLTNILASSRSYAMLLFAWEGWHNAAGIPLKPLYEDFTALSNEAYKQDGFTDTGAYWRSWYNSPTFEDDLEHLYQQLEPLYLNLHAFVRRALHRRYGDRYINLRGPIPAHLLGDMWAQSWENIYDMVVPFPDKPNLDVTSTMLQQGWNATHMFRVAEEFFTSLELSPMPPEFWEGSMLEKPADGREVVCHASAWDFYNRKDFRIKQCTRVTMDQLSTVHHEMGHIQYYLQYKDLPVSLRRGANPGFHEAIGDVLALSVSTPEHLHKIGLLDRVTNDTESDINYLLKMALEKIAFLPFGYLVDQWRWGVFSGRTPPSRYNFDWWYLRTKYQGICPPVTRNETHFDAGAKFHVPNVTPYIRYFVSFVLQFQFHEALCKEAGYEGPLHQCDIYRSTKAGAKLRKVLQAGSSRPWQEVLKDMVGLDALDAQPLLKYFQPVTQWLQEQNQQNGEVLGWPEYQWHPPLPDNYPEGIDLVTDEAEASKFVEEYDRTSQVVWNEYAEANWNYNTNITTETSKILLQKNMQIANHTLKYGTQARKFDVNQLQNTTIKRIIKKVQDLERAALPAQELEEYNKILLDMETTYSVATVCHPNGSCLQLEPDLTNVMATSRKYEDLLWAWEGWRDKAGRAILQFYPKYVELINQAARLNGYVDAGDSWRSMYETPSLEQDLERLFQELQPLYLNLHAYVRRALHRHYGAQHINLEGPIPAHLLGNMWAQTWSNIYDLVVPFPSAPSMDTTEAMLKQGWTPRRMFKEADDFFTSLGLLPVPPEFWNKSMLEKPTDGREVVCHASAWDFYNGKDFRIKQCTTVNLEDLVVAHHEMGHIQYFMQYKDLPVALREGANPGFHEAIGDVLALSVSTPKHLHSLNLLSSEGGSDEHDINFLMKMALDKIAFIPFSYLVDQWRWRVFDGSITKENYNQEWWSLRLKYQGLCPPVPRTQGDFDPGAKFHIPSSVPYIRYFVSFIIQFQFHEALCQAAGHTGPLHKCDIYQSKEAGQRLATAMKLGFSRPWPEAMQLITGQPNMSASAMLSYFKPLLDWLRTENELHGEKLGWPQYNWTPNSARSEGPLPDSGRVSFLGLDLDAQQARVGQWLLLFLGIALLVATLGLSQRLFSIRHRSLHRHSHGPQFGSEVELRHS
Description: as §1

Q: For `CNC(=O)[C@@H](NC(=O)[C@@H](CC(=O)NO)CC(C)C)C(C)(C)C` [Compound 11, (R)—N1-((S)-3,3-dimethyl-1-(methylamino)-1-oxobutan-2-yl)-N4-hydroxy-2-isobutylsuccinamide], which inhibition at 100 µM (S. aureus 8325-4) is on record?
A: 2%

Q: What about the “anti-bacterial activity (in words)” value (S. aureus 8325-4; data in Tables 10 and 11) of the same molecule?
A: not anti-bacterial

Q: And the pIC50 (human MMP-2)?
A: 8.72

Q: And the inhibition at 100 µM (staphopain B)?
A: 11%

Q: What does the source list for `CNC(=O)[C@@H](NC(=O)[C@H](CC(=O)NO)CC(C)C)C(C)(C)C` [Compound 12, (S)—N1-((S)-3,3-dimethyl-1-(methylamino)-1-oxobutan-2-yl)-N4-hydroxy-2-isobutylsuccinamide]?
A: inhibition at 100 µM (S. aureus 8325-4): 0%; Inhibition (%) Aureolysin ([1]; Compound 12 40 μM in culture and assay): 89%; Inhibition (%) Aureolysin ([1]; Compound 12 79 μM in culture and assay): 94%; Inhibition (%) Aureolysin ([1]; Compound 12 159 μM in culture and assay): 98%; Inhibition (%) Aureolysin ([1]; Compound 12 317 μM in culture and assay): 99%; pIC50 (human MMP-2): 5.57; solubility in water (in words) (Solubility in water): particularly soluble in water; inhibition at 100 µM [2]: 1%; inhibition at 100 µM (staphopain B): 10%; inhibition at 100 µM (recombinant human ACE): 0%
